Data reported in ChEMBL document CHEMBL2331441, “Phosphodiesterase inhibitors. Part 5: hybrid PDE3/4 inhibitors as dual bronchorelaxant/anti-inflammatory agents for inhaled administration” (Bioorg Med Chem Lett, 2013).
pIC50: −log10 of the molar value.

Key:
[1] = molecular target: cGMP-inhibited 3',5'-cyclic phosphodiesterase 3A (Homo sapiens, UniProt Q14432); test: Inhibition of PDE3A (unknown origin) by radiochemical assay
[2] = molecular target: T1, 3',5'-cyclic-AMP phosphodiesterase 4B (Homo sapiens, UniProt Q07343); test: Inhibition of PDE4B (unknown origin) by radiochemical assay
T1 sequence (Q07343 whole entry): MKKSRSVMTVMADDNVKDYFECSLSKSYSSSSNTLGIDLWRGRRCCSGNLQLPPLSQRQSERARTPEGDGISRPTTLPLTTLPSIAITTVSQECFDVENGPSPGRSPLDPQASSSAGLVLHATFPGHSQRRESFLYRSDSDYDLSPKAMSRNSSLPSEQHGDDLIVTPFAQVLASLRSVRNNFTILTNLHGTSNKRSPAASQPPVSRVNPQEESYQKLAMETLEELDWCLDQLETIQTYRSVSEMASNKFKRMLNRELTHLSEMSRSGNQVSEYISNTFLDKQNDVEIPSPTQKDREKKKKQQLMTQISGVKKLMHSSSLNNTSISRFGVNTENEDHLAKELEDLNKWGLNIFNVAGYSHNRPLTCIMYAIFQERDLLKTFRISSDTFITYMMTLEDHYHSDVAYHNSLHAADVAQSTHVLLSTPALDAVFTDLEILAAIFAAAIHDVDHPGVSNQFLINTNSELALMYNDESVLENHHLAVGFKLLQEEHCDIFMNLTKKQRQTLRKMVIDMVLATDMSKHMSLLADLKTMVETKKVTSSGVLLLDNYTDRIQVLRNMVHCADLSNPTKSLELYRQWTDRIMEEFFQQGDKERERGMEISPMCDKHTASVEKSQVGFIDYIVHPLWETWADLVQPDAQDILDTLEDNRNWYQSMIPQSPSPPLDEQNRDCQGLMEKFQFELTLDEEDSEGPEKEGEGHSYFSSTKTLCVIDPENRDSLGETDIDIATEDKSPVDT

Cavia porcellus = test: Bronchodilatory activity in guinea pig assessed as inhibition of histamine-induced bronchoconstriction at 0.1 mg/kg, iv; assay type: functional
[3] = molecular target: T1, 3',5'-cyclic-AMP phosphodiesterase 4B; test: Ratio of IC50 for KCA-1450 to compound IC50 for PDE4B (unknown origin) by radiochemical assay
Rattus norvegicus = test: Inhibition of LPS-induced leukocyte influx into rat lung at 100 ug/kg administered intratracheally 3 hrs prior LPS challenge; assay type: functional; conditions: inhaled or nasal
Homo sapiens = organism: Homo sapiens; test: Selectivity ratio of IC50 for PDE3A (unknown origin) to IC50 for PDE4B (unknown origin)

cGMP-inhibited 3',5'-cyclic phosphodiesterase 3A, sequence (Q14432 whole entry): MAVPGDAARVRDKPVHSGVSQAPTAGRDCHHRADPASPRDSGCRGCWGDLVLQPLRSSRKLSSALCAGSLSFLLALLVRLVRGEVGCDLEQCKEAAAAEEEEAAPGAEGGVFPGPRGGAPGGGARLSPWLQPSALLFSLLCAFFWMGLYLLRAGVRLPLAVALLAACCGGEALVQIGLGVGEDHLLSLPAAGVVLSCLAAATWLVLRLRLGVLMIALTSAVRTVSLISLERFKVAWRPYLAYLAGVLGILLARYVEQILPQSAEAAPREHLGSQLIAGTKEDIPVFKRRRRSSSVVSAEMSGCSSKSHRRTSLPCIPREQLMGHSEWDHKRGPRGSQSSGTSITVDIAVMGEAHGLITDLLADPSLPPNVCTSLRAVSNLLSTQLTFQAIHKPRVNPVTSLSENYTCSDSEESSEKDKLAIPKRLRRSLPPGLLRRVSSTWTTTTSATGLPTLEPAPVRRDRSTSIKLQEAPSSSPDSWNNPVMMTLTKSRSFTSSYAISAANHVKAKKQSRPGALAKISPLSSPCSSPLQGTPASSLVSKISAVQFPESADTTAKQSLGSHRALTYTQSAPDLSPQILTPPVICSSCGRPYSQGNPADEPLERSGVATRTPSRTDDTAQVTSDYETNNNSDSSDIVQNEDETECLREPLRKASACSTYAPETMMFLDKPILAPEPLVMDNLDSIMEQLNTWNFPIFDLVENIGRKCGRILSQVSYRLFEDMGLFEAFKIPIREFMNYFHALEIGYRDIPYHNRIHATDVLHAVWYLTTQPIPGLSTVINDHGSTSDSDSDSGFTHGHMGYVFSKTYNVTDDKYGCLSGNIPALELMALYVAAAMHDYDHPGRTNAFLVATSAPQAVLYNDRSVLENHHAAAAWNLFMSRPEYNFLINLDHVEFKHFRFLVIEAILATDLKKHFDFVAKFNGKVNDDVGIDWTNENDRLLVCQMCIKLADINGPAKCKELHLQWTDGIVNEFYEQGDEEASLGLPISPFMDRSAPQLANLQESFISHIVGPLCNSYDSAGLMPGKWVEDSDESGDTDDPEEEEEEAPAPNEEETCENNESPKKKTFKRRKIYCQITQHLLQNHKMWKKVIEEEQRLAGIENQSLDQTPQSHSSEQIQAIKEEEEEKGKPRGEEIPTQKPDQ

pIC50 [1]	pIC50 [2]	Ratio IC50 [3]	Ratio IC50 (Homo sapiens)	SMILES	inhibition in vivo at 0.1 mg/kg (Cavia porcellus) [%]	inhibition in vivo at 0.1 mg/kg (Rattus norvegicus) [%]
8.77	9.22	–	–	CCc1cc2c(C3=NN(CCCCOc4ccc(C5=NNC(=O)CC5C)cc4)C(=O)C3(C)C)ccc(OC)n2n1 (stereo not given)	92	–
6.85	8.52	23	–	COc1ccc(C2=NN(CCCOc3ccc(C4=NNC(=O)CC4C)cc3)C(=O)CC2C)c2cc(C(F)(F)F)nn12 (stereo not given)	–	–
5.82	8.85	–	–	COc1ccc(C2=NN(CCCCOc3ccc(C4=NNC(=O)C4(C)C)cc3F)C(=O)CC2C)c2cc(C(F)(F)F)nn12 (stereo not given)	–	–
7.20	9.42	–	–	COc1ccc(C2=NN(CCCCOc3ccc(C4=NNC(=O)C4(C)C)c(F)c3F)C(=O)C2(C)C)c2sc(C(F)(F)F)nc12	36	–
4.40	8.22	–	–	COc1ccc(C2=NN(CCCCOc3ccc(-c4n[nH]c(=O)cc4C)cc3)C(=O)CC2C)c2cc(C(F)(F)F)nn12 (stereo not given)	–	–
6.57	9.30	–	–	COc1ccc(C2=NN(CCCCOc3ccc(C4=NNC(=O)C4(C)C)cc3)C(=O)CC2C)c2cc(C(F)(F)F)nn12 (stereo not given)	–	–
7.82	8.51	–	–	COc1ccc(C2=NN(CCCCOc3ccc(C4=NNC(=O)C4(C)C)c(F)c3F)C(=O)CC2C)c2cc(C(F)(F)F)nn12 (stereo not given)	–	–
9.57	8.57	–	–	CCc1cc2c(C3=NN(CCCCOc4ccc(C5=NNC(=O)CC5C)cc4)C(=O)CC3)ccc(OC)n2n1 (stereo not given)	28	–
7.40	8.49	–	–	COc1ccc(C2=NN(CCCCOc3ccc(C4=NNC(=O)C4(C)C)c(F)c3F)C(=O)C2(C)C)n2cc(C(F)(F)F)nc12	76	–

More lines, now with the values behind:

SMILES	pIC50 [1]	pIC50 [2]	Ratio IC50 [3]	Ratio IC50 (Homo sapiens)	inhibition in vivo at 0.1 mg/kg (Cavia porcellus) [%]	inhibition in vivo at 0.1 mg/kg (Rattus norvegicus) [%]
COc1ccc(C2=NNC(=O)C[C@@H]2C)c2cc(C(F)(F)F)nn12	6.44	7.38	–	–	–	–
COc1ccc(C2=NN(CCCCOc3ccc(C4=NNC(=O)CC4)cc3)C(=O)CC2C)c2cc(C(F)(F)F)nn12 (stereo not given)	6.44	10.00	–	–	–	–
CCc1cc2c(C3=NN(CCCOc4ccc(C5=NNC(=O)CC5C)cc4)C(=O)CC3C)ccc(OC)n2n1 (stereo not given)	7.96	8.23	–	–	–	–
COc1ccc(C2=NN(CCCCOc3ccc(C4=NNC(=O)CC4)c(F)c3F)C(=O)CC2C)c2cc(C(F)(F)F)nn12 (stereo not given)	8.29	8.66	–	–	–	–
CCc1cc2c(-c3ccc(=O)n(CCCCOc4ccc(C5=NNC(=O)CC5C)cc4)n3)ccc(OC)n2n1 (stereo not given)	8.57	7.70	–	–	71	–
CCc1cc2c(C3=NN(CCCCOc4ccc(C5=NNC(=O)CC5C)cc4)C(=O)CC3C)ccc(OC)n2n1 (stereo not given)	8.92	8.77	–	–	96	–
COc1ccc(C2=NNC(=O)CC2C)c2cc(C(F)(F)F)nn12 (racemic)	5.62	7.15	–	–	–	–
COc1ccc(C2=NN(CCCCOc3ccc(C4=NNC(=O)CC4)c(F)c3F)C(=O)C2(C)C)c2sc(C(F)(F)F)nc12	8.16	9.11	–	–	96	51
COc1ccc(C2=NN(CCCCCOc3ccc(C4=NNC(=O)CC4C)cc3)C(=O)CC2C)c2cc(C(F)(F)F)nn12 (stereo not given)	7.14	9.70	23	–	–	–
COc1ccc(C2=NN(CCCCOc3ccc(-c4ccc(=O)[nH]n4)cc3)C(=O)CC2C)c2cc(C(F)(F)F)nn12 (stereo not given)	4.42	7.70	–	–	–	–
COc1ccc(C2=NN(CCCCOc3ccc(C4=NNC(=O)CC4)c(F)c3F)C(=O)C2(C)C)n2cc(C(F)(F)F)nc12	8.30	8.17	–	–	87	56
COc1ccc(C2=NN(CCCCOc3ccc(C4=NNC(=O)CC4C)cc3)C(=O)CC2C)c2cc(C(F)(F)F)nn12 (stereo not given)	7.82	9.52	23	–	–	–
COc1ccc(C2=NN(CCCCOc3cccc(C4=NNC(=O)CC4C)c3)C(=O)CC2C)c2cc(C(F)(F)F)nn12 (stereo not given)	6.23	9.30	–	–	–	–
COc1ccc(C2=NN(CCCCOc3cccc(C4=NNC(=O)C4(C)C)c3)C(=O)CC2C)c2cc(C(F)(F)F)nn12 (stereo not given)	5.76	10.19	–	10000	–	–
COc1ccc(C2=NN(CCOc3ccc(C4=NNC(=O)CC4C)cc3)C(=O)CC2C)c2cc(C(F)(F)F)nn12 (stereo not given)	6.89	9.18	23	–	–	–
COc1ccc(C2=NN(CCCCOc3ccc(C4=NNC(=O)C4(C)C)c(F)c3)C(=O)CC2C)c2cc(C(F)(F)F)nn12 (stereo not given)	7.24	9.52	–	–	–	–
